Entries after “also recorded” stand apart in the source; their conditions may differ. Ends that are not written are not given here.

The test system of assay [1] is IL-11/IL-11R interaction. Kind of assay: Inhibition of the productive interaction of IL-11 with IL-11R by IL-11 binding peptides.
Assay [2] has as its system cocultures of murine bone marrow and calvaria cells. The assay can be described thus: TRAP assay: IL-11 induced osteoclast formation in cocultures of murine bone marrow and calvaria cells. The conditions noted are these: for IL-11 induced osteoclast formation (TRAP+ multinucleated cells): 20 ng/ml IL-11, 10, 100 or 1000 ng/ml test substance, 9 days, FIGS. 7A, 7B, 8, 12. Type of assay: cell-based. From the text: Particular IL-11 antagonists useful in the treatment of IL-11 related bone density disorders may be identified using the TRAP assay and the bone nodule formation assay, discussed herein. The TRAP assay is known in the art and involves co-culturing murine calvarla (osteoblasts) and bone marrow cells in vitro and then quantifying osteoclast formation by counting the number of tartrate-resistant acid phosphatase positive (TRAP+) multinucleated cells. […] These potential IL-11 antagonists may be screened to determine if they are IL-11 antagonists by examining their activity in the TRAP assay and the bone nodule formation assay.
Post menopausal osteoporosis is characterized by a general reduction in bone mass, resulting from an imbalance between osteoblast-mediated bone formation and bone resorption by the osteoclast. While the osteoblast is responsible for the formation of new bone or osteoid, it also appears to control the activation and/or number of osteoclasts by releasing cytokines such as IL-6 or IL-11. This process can be examined using a “TRAP assay” which involves co-culturing murine calvaria (osteoblasts) and bone marrow cells in vitro and then quantifying osteoclast formation by counting the number of tartrate-resistant acid phosphatase positive (TRAP+) multinucleated cells. Ovariectomized (OVX) rats or mice provide a satisfactory animal model for postmenopausal women in studies of osteoporosis.
The effect of IL-11 on osteoclast development in cocultures of murine bone marrow and calvaria cells was examined using standard techniques. Briefly, bone marrow cultures were established by removing femurs from mice, dissecting away soft tissue, and removing the distal and proximal ends of the femur. The marrow was then flushed with 5 ml α MEM and 1.0% penicilin-streptomycin using a 25 gauge needle. The bone marrow cells were then suspended to a concentration of 5,000,000 cells per ml in α MEM containing 15% fetal calf serum (charcoal treated) to remove cells adherent to plastic. The non-adherent cells were then co cultured for an additional 9 days with murine calvaria cells prior to being fixed and stained for TRAPase activity (stains were obtained from Sigma Chemical Co., St. Louis, Mo.). TRAP+MNC's have the ability to form resorption pits in smooth cortical bone slices and are therefore considered to be of osteoclast origin.
The effect of IL-11 on osteoclast development in cocultures of murine bone marrow and calvaria cells was examined by maintaining these cultures in the presence of various specific concentrations of IL-11 for 9 days. After 9 days of culture, the cells were stained for TRAPase activity and the number of multinucleated TRAP+cells were determined. The results of this experiment are depicted in Table I. Data are expressed as mean +/−SEM. […]

Assay [3] relates to murine calvaria cell culture. The assay can be described thus: Bone nodule formation assay in the presence of exogenous IL-11 and IL-11 antagonists. Type of assay: cell-based. The conditions noted are these: 20 ng/ml exogenous IL-11; for reversal of the inhibitory effect of IL-11 on bone nodule formation: 21 days, FIGS. 9, 10. Here is the method:
Bone nodule formation was measured using standard techniques. Briefly, calvaria cell cultures were established as follows: Calvaria cells were obtained from 2 day old fetal mouse calavariae by collagenase digestion. The cells were then cultured for 21 days in the presence of 0.5 mM ascorbic acid and 10 mM β-glycerophosphate. Where indicated in the experimental descriptions below, IL-11 and the mutant IL-11 receptor of experiment 4 were added to the culture at day 0 and every 3-4 days thereafter until the removal of the medium for analysis. Bone nodule formation was quantified by counting alizarin red stain nodules under a light microscope.
The effect of a gp130 binding region mutant soluble IL-11 receptor of type described in Experiment 4 and produced by the process of Experiment 3 on bone nodule formation in the presence of 20 ng/ml of exogenous IL-11 was assessed, and the results are depicted in FIG. 9. […] Thus, IL-11 antagonists such as mutant IL-11Rs can enhance bone nodule formation.
It was desired to determine if bone nodule formation could be modulated in a manner similar to that reported in Example 6 using an IL-11 antagonist peptide such as the one used in Example 5. To achieve this, the procedure of Example 6 was repeated, with the substitution of peptide 1 for the solubilized mutant IL-11 receptor. The results of this experiment are depicted in FIG. 10.

Assay [4] has as its target Interleukin-11. The assay can be described thus: cell-based or functional assay.
In assay [5] the test system is murine calvaria cells (primary osteoblasts). The assay can be described thus: Bone nodule formation assay, effect of IL-11. Type of assay: cell-based. As to conditions: various concentrations of IL-11; 250 μM ascorbic acid, 10 mM β-glycerol phosphate; FIG. 5. On the procedure: The effect of IL-11 on bone formation was examined using the bone nodule formation assay. Murine calvaria cells (primary osteoblasts) were cultured in the presence of 250 μM ascorbic add and 10 mM β-glycerol phosphate, and in the presence of various amounts of interleukin-11. After culturing, the culture media were plated out and the number of bone nodules per plate was counted. The results are shown on the accompanying FIG. 5, where number of bone nodules per plate is plotted as the vertical axis, with the different concentrations of interleukin on the horizontal axis, not to scale. Each bar represents the result on experiments containing a different concentration of interleukin-11, as noted on FIG. 5.

As to “Ser Ile Leu Arg Pro Asp Pro Pro Gin Gly Leu Arg Val Glu Ser Val Pro Gly Tyr Pro (SILRPDPPQGLRVESVPGYP; listed as Homo sapiens) [SEQ. ID. NO. 6]”, in assay [1], the “productive interaction of IL-11 with IL-11R” value (“productive interaction” for short) is “has been found to inhibit the productive interaction between IL-11 and IL-11R”.

Turning to “Thr Tyr Pro Ala Ser Trp Pro Cys Gin Pro His Phe Leu Leu Lys Phe Arg Leu Gln Tyr (TYPASWPCQPHFLLKFRLQY; listed as Homo sapiens) [peptide 2]”, the “IL-11 induced osteoclast formation (TRAP+ multinucleated cells)” value (“IL-11 induced osteoclast formation” for short) in assay [2] is “does not”. Moreover, the “reversal of the inhibitory effect of IL-11 on bone nodule formation” value in assay [3] is “unable to reduce the inhibition of nodule formation by IL-11”.

RRLRASW [SEQ ID NO. 5]: the “productive interaction” value in assay [1] is “capable of inhibiting the productive interaction of IL-11 and IL-11R”.

With “H289→Y289 mutant solubilized IL-11 receptor (from UniProt Q14626 24-370)”, the concentration allowing enhanced bone nodule formation in the presence of 20 ng/ml exogenous IL-11 in assay [4] came to 10 ng/mL.

In the case of RRLRASWTYPASWPCQPHFL [peptide 1], in assay [2], the “IL-11 induced osteoclast formation” value is recorded as “inhibits IL-11 induced osteoclast formation”. Also, the “reversal of the inhibitory effect of IL-11 on bone nodule formation” value in assay [3] was “able to reduce the inhibitory effects”. Also, the “bone nodule formation relative to control samples” value in assay [3] (50 ng/ml peptide, FIG. 10) is recorded as “allowed bone nodule formation in excess of that seen in the control samples”. Also, the “productive interaction” value in assay [1] is “binds IL-11 and prevents its productive interaction with IL-11R”.

B1: IL-11: cytokine interleukin-11 (protein, UniProt P20809 22-199, looked up)
Interleukin-11: PGPPPGPPRVSPDPRAELDSTVLLTRSLLADTRQLAAQLRDKFPADGDHNLDSLPTLAMSAGALGALQLPGVLTRLRADLLSYLRHVQWLRRAGGSSLKTLEPELGTLQARLDRLLRRLQLLMSRLALPQPPPDPPAPPLAPPSSAWGGIRAAHAILGGLHLTLDWAVRGLLLLKTRL
B1: the “number of bone nodules per plate” value in assay [5] was “number of bone nodules per plate decreased; also recorded: inhibits bone formation”. Besides, the “osteoclast formation in vitro, effect of IL-11” value in assay [2] (cocultures of murine calvaria and bone marrow cells) is reported as “potent stimulator of osteoclast formation”.

B2: H289→Y289 mutant solubilized IL-11 receptor: gp130 binding region mutant (H289 to Y) recombinant soluble human IL-11 receptor of Example 3 (protein)
chain: SPCPQAWGPPGVQYGQPGRSVKLCCPGVTAGDPVSWFRDGEPKLLQGPDSGLGHELVLAQADSTDEGTYICQTLDGALGGTVTLQLGYPPARPVVSCQAADYENFSCTWSPSQISGLPTRYLTSYRKKTVLGADSQRRSPSTGPWPCPQDPLGAARCVVHGAEFWSQYRINVTEVNPLGASTRLLDVSLQSILRPDPPQGLRVESVPGYPRRLRASWTYPASWPCQPHFLLKFRLQYRPAQHPAWSTVEPAGLEEVITDAVAGLPYAVRVSARDFLDAGTWSTWSPEAWGTPSTGTIPKEIPAWGQLHTQPEVEPQVDSPAPPRPSLQPHPRLLDHRDSVEQVAVLA
modifications: left off: small tags and cut ends
Consider B2, for which the “IL-11 induced osteoclast formation” value in assay [2] is listed as “capable of inhibiting IL-11-induced osteoclast formation”. In assay [3] (10 ng/ml mutant receptor, FIG. 9), the “bone nodule formation relative to the level in the absence of exogenous IL-11” value is reported as “enhanced bone nodule formation”. For the same molecule, the “reversal of the inhibitory effect of IL-11 on bone nodule formation” value in assay [3] is “can reverse the effect of exogenous IL-11”.

Source of the values: patent US6846907B1, “Osteoporosis treatment” (Hamilton Civic Hospitals Research Centre, priority 1999, dated 2005).
